Results reported in patent US6406868B1, “AMPA-binding human GluR1 receptors” (priority 1992, dated 2002).

Columns and labels:
human GluR1B receptor [1] = test: NMDA binding to membranes of transfected COS-1 cells; conditions: membrane preparations from human GluR1B receptor-producing COS cells
Description: (§1) Transfected cells in the frozen state were resuspended in ice-cold distilled water using a hand homogenizer, sonicated for 5 seconds, and then centrifuged for 20 minutes at 50,000 g. The supernatant was discarded and the membrane pellet stored frozen at −70° C.
(§2) COS cell membrane pellets were suspended in ice cold 5 mM Tris-HCI (pH 7.55, 5C) and centrifuged again at 50,000 g for 10 minutes in order to remove endogenous glutamate that would compete for binding. Pellets were resuspended in ice cold 50 mM Tris-HCl (pH 7.55) buffer and the resultant membrane preparation was used as tissue source for binding experiments described below. Proteins were determined using the Pierce Reagent with BSA as standard.

human GluR1B receptor [2] = test: kainate-binding assay with membranes of transfected COS-1 cells; conditions: [vinylidene-3H] kainic acid 5 nM; membrane preparations from human GluR1B receptor-producing COS cells
Description: as §1, §2
For kainate-binding assays, incubation mixtures consisted of 25-100 ug tissue protein and [vinylidene-3H] kainic acid (58Ci/mmole, 5 nM final) in the cold incubation buffer, 1 ml final volume. Non-specific binding was determined in the presence of 1 mM L-glutamate. Samples were incubated as for the AMPA-binding assays, and bound and free ligand were separated by rapid filtration using a Brandel cell harvester and GF/B filters pre-soaked in ice-cold 0.3% polyethyleneimine. Filters were washed twice in 6 ml of the cold incubation buffer, then placed in scintillation vials with 5 ml of Beckman Ready-Protein Plus scintillation cocktail for counting.

human GluR1B receptor [3] = test: AMPA-binding assay with membranes of transfected COS-1 cells; conditions: 10 nM [3H]-AMPA; membrane preparations from human GluR1B receptor-producing COS cells; non-specific binding with 1 mM L-glutamate; FIG. 3
Description: as §1, §2
Binding assays were then performed, using an amount of COS-derived membrane equivalent to from 25-100 ug as judged by protein determination and selected radiolabelled ligand. In particular, for AMPA-binding assays, incubation mixtures consisted of 25-100 ug tissue protein and D,L-alpha-[5-methyl-3H]amino-3-hydroxy-5-methylisoxazole-4-propionic acid (3H-AMPA, 27.6Ci/mmole, 10 nM final) with 0.1 M KSCN and 2.5 mM CaCl2 in the 1 ml final volume. Non-specific binding was determined in the presence of 1 mM L-glutamate. […] Pellets were washed twice in 4 ml of the cold incubation buffer, then 5 ml of Beckman Ready-Protein Plus scintillation cocktail was added, for counting.

**Q.** With `CN[C@H](CC(=O)O)C(=O)O` [NMDA, N-methyl-D-aspartate] as the compound, how does the “binding of NMDA” value (human GluR1B receptor [1]) read?
**A.** The value was “little or no demonstrable binding”.

**Q.** Which binding of kainate (human GluR1B receptor [2]) does the source give for `C=C(C)[C@H]1CN[C@H](C(=O)O)[C@H]1CC(=O)O` [kainate, [vinylidene-3H] kainic acid] here?
**A.** Its binding of kainate is “little or no demonstrable binding”.

**Q.** Which specific binding (human GluR1B receptor [3]) does the source give for `[3H]Cc1onc(O)c1CC(N)C(=O)O` (racemic) [[3H]-AMPA, D,L-alpha-[5-methyl-3H]amino-3-hydroxy-5-methylisoxazole-4-propionic acid] here?
**A.** Its specific binding is 100-150 fmole/mg protein.
